Measured values reported in patent publication US20190134005A1 (BioMarin Pharmaceutical Inc., priority 2016, published 2019).
Like-named read-outs stand apart in the source and are kept apart here.

Molecular target: T1, human CGT (Homo sapiens, UniProt Q16880)
T1 sequence (Q16880 21-541): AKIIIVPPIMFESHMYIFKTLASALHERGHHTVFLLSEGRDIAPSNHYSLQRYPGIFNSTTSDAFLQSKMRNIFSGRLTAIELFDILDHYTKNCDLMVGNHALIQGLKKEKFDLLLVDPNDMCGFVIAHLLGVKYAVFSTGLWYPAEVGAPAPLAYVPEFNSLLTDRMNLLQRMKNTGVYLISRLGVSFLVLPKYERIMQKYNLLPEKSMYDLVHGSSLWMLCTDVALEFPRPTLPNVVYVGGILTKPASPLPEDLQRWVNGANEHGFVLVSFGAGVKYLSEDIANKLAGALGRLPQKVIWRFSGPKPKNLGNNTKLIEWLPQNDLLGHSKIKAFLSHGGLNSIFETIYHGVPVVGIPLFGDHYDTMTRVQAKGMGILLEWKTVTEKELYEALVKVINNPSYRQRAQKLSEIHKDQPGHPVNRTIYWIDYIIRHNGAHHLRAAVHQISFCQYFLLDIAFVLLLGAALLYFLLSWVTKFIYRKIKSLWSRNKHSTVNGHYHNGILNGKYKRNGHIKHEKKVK
Assay: Assay 1: CGT Enzymatic Assay (RapidFire/MS/MS, 0.01% Tween 80)
Format: biochemical

[1] = Table 1, Compounds of Formula (I) and Formula (II), CGT enzymatic assay, read-out: IC50
[2] = Table 1, Compounds of Formula (I) and Formula (II), CGT enzymatic assay, C6-NBD-dihydro-galactosylceramide readout, read-out: IC50

| Structure (SMILES) | IC50 [1] [µM] | further results |
| --- | --- | --- |
| CC(C)C1N(c2ccc(C(F)(F)F)cc2)C(=O)N(c2ccc(C(F)(F)F)cc2)C1(O)c1cccc(OC(F)(F)F)c1 (stereo not shown) [Example 196, 4-hydroxy-5-isopropyl-4-(3-(trifluoromethoxy)phenyl)-1,3-bis(4-(trifluoromethyl)phenyl)imidazolidin-2-one] | < 1 |  |
| CC(C)(C)c1cccc(C2(O)CN(c3ccc(Br)cc3)C(=O)N2c2ccc(Br)cc2)c1 (stereo not shown) [Compound 127, 1,3-bis(4-bromophenyl)-4-(3-(tert-butyl)phenyl)-4-hydroxyimidazolidin-2-one] | 10 to 50 |  |
| COc1ccc(C2(O)C(=O)N(c3ccc(Br)cc3)C(=O)N2c2ccc(Br)cc2)cn1 (stereo not shown) [Example 202, 1,3-bis(4-bromophenyl)-5-hydroxy-5-(6-methoxypyridin-3-yl)imidazolidine-2,4-dione] | 10 to 50 |  |
| CC1(C)N(c2ccc(Cl)cc2)C(=O)N(c2ccc(Cl)cc2)C1(O)c1cccc(C(F)(F)F)c1 (stereo not shown) [Compound 134, 1,3-bis(4-chlorophenyl)-4-hydroxy-5,5-dimethyl-4-(3-(trifluoromethyl)phenyl)imidazolidin-2-one] | < 1 |  |
| CC(O)c1cccc(C2(O)C(C)N(c3ccc(Cl)cc3)C(=O)N2c2ccc(Cl)cc2)c1 (stereo not shown) [Compound 137, 1,3-bis(4-chlorophenyl)-4-hydroxy-4-(3-(1-hydroxyethyl)phenyl)-5-methylimidazolidin-2-one] | < 1 |  |
| O=C1N(c2ccc(Br)cc2)C(=O)C(O)(c2ccc(OC3CC3)c(Cl)c2)N1c1ccc(Br)cc1 (stereo not shown) [Example 171, 1,3-bis(4-bromophenyl)-5-(3-chloro-4-cyclopropoxyphenyl)-5-hydroxyimidazolidine-2,4-dione] | 50 to 100 |  |
| O=C1N(c2ccc(Br)cc2)C(=O)C(O)(c2ccco2)N1c1ccc(Br)cc1 (stereo not shown) [Example 198, 1,3-bis(4-bromophenyl)-5-(furan-2-yl)-5-hydroxyimidazolidine-2,4-dione] | > 50 |  |
| N#Cc1ccc(C2(O)CN(c3ccc(Br)cc3)C(=O)N2c2ccc(Br)cc2)cc1 (stereo not shown) [Compound 61, 4-(1,3-bis(4-bromophenyl)-4-hydroxy-2-oxoimidazolidin-4-yl)benzonitrile] | > 50 |  |
| COc1ccc(N2C(=O)N(c3ccc(OC)cc3)C(O)(c3cccc(OC(F)(F)F)c3)C2(C)C)cc1 (stereo not shown) [Compound 241, 4-hydroxy-1,3-bis(4-methoxyphenyl)-5,5-dimethyl-4-(3-(trifluoromethoxy)phenyl)imidazolidin-2-one] | < 1 |  |
| O=c1n(-c2ccc(Br)cc2)cc(-c2ccc[nH]2)n1-c1ccc(Br)cc1 [Compound 256, 1,3-bis(4-bromophenyl)-4-(1H-pyrrol-2-yl)-1,3-dihydro-2H-imidazol-2-one] | > 50 |  |
| CCCc1c(-c2cccc(OC(F)(F)F)c2)n(-c2ccc(Cl)cc2)c(=O)n1-c1ccc(Cl)cc1 [Compound 245, 1,3-bis(4-chlorophenyl)-4-propyl-5-(3-(trifluoromethoxy)phenyl)-1,3-dihydro-2H-imidazol-2-one] | < 1 |  |
| COC[C@@]1(C)N(c2ccc(Cl)cc2)C(=O)N(c2ccc(Cl)cc2)[C@@]1(O)c1cccc(OC(F)(F)F)c1 [Compound 296-1, (4R,5R)-1,3-bis(4-chlorophenyl)-4-hydroxy-5-(methoxymethyl)-5-methyl-4-(3-(trifluoromethoxy)phenyl)imidazolidin-2-one] |  | IC50 [2]: 1 to 10 µM |
| O=C1N(c2ccc(Br)cc2)C(=O)C(O)(c2ccc(OC3CCCC3)cc2)N1c1ccc(Br)cc1 (stereo not shown) [Example 167, 1,3-bis(4-bromophenyl)-5-(4-(cyclopentyloxy)phenyl)-5-hydroxyimidazolidine-2,4-dione] | 50 to 100 |  |
| CCC1N(c2ccc(Cl)cc2)C(=O)N(c2ccc(Cl)cc2)C1(O)c1cccc(Cl)c1 (stereo not shown) [Compound 81, 4-(3-chlorophenyl)-1,3-bis(4-chlorophenyl)-5-ethyl-4-hydroxyimidazolidin-2-one] | < 1 |  |
| O=C1N(c2ccc(Br)cc2)CC(O)(c2cccc(C(F)(F)F)c2)N1c1ccc(Br)cc1 (stereo not shown) [Example 31, 1,3-bis(4-bromophenyl)-4-hydroxy-4-(3-(trifluoromethyl)phenyl)imidazolidin-2-one] | < 1 |  |
| Cc1c(-c2cccc(Br)c2)n(-c2ccc(Cl)cc2)c(=O)n1-c1ccc(Cl)cc1 [Compound 246, 4-(3-bromophenyl)-1,3-bis(4-chlorophenyl)-5-methyl-1,3-dihydro-2H-imidazol-2-one] | < 1 |  |
| O=C1N(c2ccc(Br)cc2)CC(O)(c2ccccn2)N1c1ccc(Br)cc1 (stereo not shown) [Example 9, 1,3-bis(4-bromophenyl)-4-hydroxy-4-(pyridin-2-yl)imidazolidin-2-one] | > 50 |  |
| C#Cc1cccc(C2(O)C(C)N(c3ccc(Cl)cc3)C(=O)N2c2ccc(Cl)cc2)c1 (stereo not shown) [Compound 93, 1,3-bis(4-chlorophenyl)-4-(3-ethynylphenyl)-4-hydroxy-5-methylimidazolidin-2-one] | < 1 |  |
| O=C1N(c2ccc(Cl)cc2)CC(O)(c2cccc(Cl)c2)N1c1ccc(Cl)cc1 (stereo not shown) [Example 39, 4-(3-chlorophenyl)-1,3-bis(4-chlorophenyl)-4-hydroxyimidazolidin-2-one] | < 1 |  |
| O=C1N(c2ccc(Br)cc2)C(=O)C(O)(c2cc3ccccc3o2)N1c1ccc(Br)cc1 (stereo not shown) [Example 213, 5-(benzofuran-2-yl)-1,3-bis(4-bromophenyl)-5-hydroxyimidazolidine-2,4-dione] | > 50 |  |
| CCC1N(c2ccc(Cl)cc2)C(=O)N(c2ccc(Cl)cc2)C1(O)c1cccc(OC(F)(F)F)c1 (stereo not shown) [Compound 82, 1,3-bis(4-chlorophenyl)-5-ethyl-4-hydroxy-4-(3-(trifluoromethoxy)phenyl)imidazolidin-2-one] | < 1 |  |
| N#Cc1ccc(N2C(=O)N(c3ccc(Cl)cc3)C3(CCC3)C2(O)c2cccc(OC(F)(F)F)c2)cc1 (stereo not shown) [Compound 288, 4-(5-(4-chlorophenyl)-8-hydroxy-6-oxo-8-(3-(trifluoromethoxy)phenyl)-5,7-diazaspiro[3.4]octan-7-yl)benzonitrile] |  | IC50 [2]: < 1 µM |
| O=C1N(c2ccc(Br)cc2)CC(O)(c2ccc(Cl)s2)N1c1ccc(Br)cc1 (stereo not shown) [Example 5, 1,3-bis(4-bromophenyl)-4-(5-chlorothiophen-2-yl)-4-hydroxyimidazolidin-2-one] | 10 to 50 |  |
| O=C1N(c2ccc(Cl)cc2)C2(CC2)C(O)(c2cccc(OC(F)(F)F)c2)N1c1ccc(Cl)cc1 (stereo not shown) [Example 224, 4,6-bis(4-chlorophenyl)-7-hydroxy-7-(3-(trifluoromethoxy)phenyl)-4,6-diazaspiro[2.4]heptan-5-one] | < 1 |  |
| O=C1N(c2ccc(Br)cc2)C(=O)C(O)(c2cc3ccccc3[nH]2)N1c1ccc(Br)cc1 (stereo not shown) [Example 210, 1,3-bis(4-bromophenyl)-5-hydroxy-5-(1H-indol-2-yl)imidazolidine-2,4-dione] |  | IC50: 10 to 50 µM |

Second part, led by results:

| IC50 [1] [µM] | Structure (SMILES) | further results |
| --- | --- | --- |
| < 1 | N#Cc1cccc(C2(O)N(c3ccc(Cl)cc3)C(=O)N(c3ccc(Cl)cc3)[C@@]23CCOC3)c1 (stereo partly drawn) [Example 221-2, 3-((5R)-1,3-bis(4-chlorophenyl)-4-hydroxy-2-oxo-7-oxa-1,3-diazaspiro[4.4]nonan-4-yl)benzonitrile] |  |
| < 1 | Cc1ccc(N2C(=O)N(c3ccc(C)cc3)C(O)(c3cccc(OC(F)(F)F)c3)[C@H]2C(C)C)cc1 (single isomer, unassigned) [Compound 235-2] |  |
| < 1 | C[C@H]1N(c2ccc(Br)cc2)C(=O)N(c2ccc(Br)cc2)C1(O)c1cccc(C(F)(F)F)c1 (stereo partly drawn) [Compound 74-2, (5R)-1,3-bis(4-bromophenyl)-4-hydroxy-5-methyl-4-(3-(trifluoromethyl)phenyl)imidazolidin-2-one] |  |
| 10 to 50 | C[C@@]1(c2ccccc2)N(c2ccc(Cl)cc2)C(=O)N(c2ccc(Cl)cc2)[C@]1(O)c1ccccc1 [Compound 121-1, (4S,5S)-1,3-bis(4-chlorophenyl)-4-hydroxy-5-methyl-4,5-diphenylimidazolidin-2-one] |  |
| < 1 | C[C@@H]1N(c2ccc(Br)cc2)C(=O)N(c2ccc(Br)cc2)C1(O)c1ccccc1 (stereo partly shown) [Example 13-1] |  |
| 1 to 10 | C[C@@H]1N(c2ccc(Br)cc2)C(=O)N(c2ccc(Br)cc2)C1(O)c1cccs1 (stereo partly shown) [Example 49-1] |  |
| 1 to 10 | Cc1csc(C2(O)[C@@H](C)N(c3ccc(Br)cc3)C(=O)N2c2ccc(Br)cc2)c1 (stereo partly drawn) [Compound 97-2, (5R)-1,3-bis(4-bromophenyl)-4-hydroxy-5-methyl-4-(4-methylthiophen-2-yl)imidazolidin-2-one] |  |
| < 1 | COc1cccc(C2(O)[C@H](C)N(c3ccc(Br)cc3)C(=O)N2c2ccc(Br)cc2)c1 (stereo partly drawn) [Compound 71-1, (5S)-1,3-bis(4-bromophenyl)-4-hydroxy-4-(3-methoxyphenyl)-5-methylimidazolidin-2-one] |  |
| < 1 | CC[C@H]1N(c2ccc(Cl)cc2)C(=O)N(c2ccc(Cl)cc2)C1(O)c1cccc(C(F)(F)F)c1 (stereo partly drawn) [Compound 80-2, (5R)-1,3-bis(4-chlorophenyl)-5-ethyl-4-hydroxy-4-(3-(trifluoromethyl)phenyl)imidazolidin-2-one] |  |
| < 1 | CC[C@]1(C)N(c2ccc(Cl)cc2)C(=O)N(c2ccc(Cl)cc2)C1(O)c1cccc(OC(F)(F)F)c1 (single isomer, unassigned) [Example 163-2] |  |
| 1 to 10 | Cc1ccc(N2C(=O)N(c3ccc(C)cc3)C(O)(c3cccc(C#N)c3)[C@@H]2C)cc1 (single isomer, unassigned) [Compound 105-1] |  |
| < 1 | Cc1cccc(C2(O)[C@@H](C)N(c3ccc(Br)cc3)C(=O)N2c2ccc(Br)cc2)c1 (stereo partly shown) [Example 29-2] |  |
